The values below come from US6696492B1, “Use of L carnitine and its alkanoyl dervatives for the preparation of a medicament useful for the treatment of patients suffering from diabetic and/or dysmetabolic nephropathy” (Sigma-Tau Industrie Farmaceutiche Riunite S.p.A., priority 1999, dated 2004).

Each structure is given as a SMILES string.

For data set [1] the following is noted: renally insufficient children; cited from earlier work.
Data set [2] is described as follows: Clinical physiology study: forearm blood flow by plethysmography, intravenous infusion of PLC. It counts as in vivo, human. Conditions: 6 healthy volunteers, after 60-minute intravenous infusion at 12 micrograms per minute. How it is done: A clinical physiology study was conducted in human subjects for the purpose of establishing whether PLC was also capable of exerting a vasodilating action at the microcirculatory level. […] This study was conducted in 6 healthy volunteers, whose overall blood flow was measured by plethysmography in the forearm, both in basal conditions and after 60-minute intravenous infusion of PLC at the dose of 12 micrograms per minute. The choice of dose to be administered was based on kinetics calculations, in order to try and achieve a steady state plasma concentration of PLC similar to the one obtained with chronic oral administration of 2 grams of PLC.

Data set [3] is described as follows: Clinical study: forearm blood flow by plethysmography, local intra-arterial PLC, then nitro-L-arginine. The class given is in vivo, human. To be noted: 8 healthy volunteers, local intra-arterial administration.
A short description of data set [4]: Clinical pilot study, type 2 diabetes mellitus and diabetic nephropathy in the microalbuminuria stage. It counts as in vivo, human. Conditions: after 6 months' treatment, 1.5 grams/day oral; before treatment 37.8±4.6; p<0.01; 8 patients. On the procedure:
(§1) Lastly, a clinical pilot study has been conducted in a small patient sample, consisting of 8 patients suffering from type 2 diabetes mellitus and diabetic nephropathy in the microalbuminuria stage without evidence of frank renal insufficiency and 10 patients suffering from type 2 diabetes mellitus and renal insufficiency (serum creatinine>2 mg/dl and creatinine clearance <40 ml/min).
(§2) Both patient groups were treated with 1.5 grams/day of PLC administered in three distinct doses of 500 mg at three different times of day (1 tablet after breakfast, lunch and dinner) for a total period of 6 months.

A short description of data set [5]: Clinical pilot study, type 2 diabetes mellitus and renal insufficiency. It counts as in vivo, human. To be noted: after 6 months' treatment, 1.5 grams/day oral. How it is done: as §1, §2
Data set [6] is described as follows: Tolerability in patients with diabetes mellitus and peripheral arteriopathy. The class given is in vivo, human. To be noted: 6 months' treatment.
The conditions of data set [7]: organ ischaemia and reperfusion; cited from earlier work.
The conditions of data set [8]: cited from earlier work.

In the case of `C[N+](C)(C)C[C@H](O)CC(=O)[O-]` [L-carnitine], the serum triglyceride levels entry in data set [1] is “reduces the serum triglyceride levels”.

As for `CCC(=O)O[C@H](CC(=O)[O-])C[N+](C)(C)C` [PLC, propionyl L-carnitine], the “increase in blood flow as compared to resting basal flow” value in data set [2] is listed as “approximately 25%”. Further, the vasodilatory action entry in data set [3] is reported as “confirmed the vasodilatory action”. In addition, in data set [4], the “urinary microalbumin excretion rate” value is given as 21.3±5.1 mg/g creatinine. The compound also gave a 24-h proteinuria in data set [5] (before treatment 6.2±2.3, p<0.01, 10 patients) of 3.1±1.2 g/24 h. The compound also yielded a creatinine clearance in data set [5] (before treatment 34.6±4.6, spread ±7.3) of 42.7 mL/min. The compound also showed an LDL in data set [5] (before treatment 169±15) of 158 ± 10 mg/dL. The same compound showed a triglycerides in data set [5] (before treatment 217±75 mg/dl) of 192±62 m/dl. Also, in data set [6], the “side effects in man” value is “no severe unwanted effects”. Further, the “damage induced by the ischaemia” value in data set [7] was “capable of reducing the damage induced by the ischaemia”. Moreover, the “functional capability and perfusion of the peripheral nerves” value in data set [8] (streptozocin-diabetic rats (Hotta et al. 1996)) is listed as “capable of improving”. In data set [8] (streptozocin-diabetic rats), the “plasma lipid levels (total cholesterol, triglycerides, LDL)” value is reported as “reduced”.
